Data taken from article PMC12481576, “Barbituric Acid Derivatives as Covalent Inhibitors of Leishmania braziliensis Dihydroorotate Dehydrogenase” (Journal of Medicinal Chemistry, 2025).
Where “and” joins values, the source holds several entries; their conditions need not be identical. Equal entries are not always repeated. Where two headings read alike, the source gives them in different places.

What was measured:
HsDHODH = target: T1, HsDHODH (Homo sapiens, UniProt Q02127); test: Selectivity assay: HsDHODH single-dose inhibition (DCIP reduction); assay type: biochemical
T1 construct: made in house
Summary of the method: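 Recombinant human DHODH at 20 nM final, purified by Ni-NTA affinity, tested at a single compound concentration in triplicate. DCIP reduction followed at 610 nm every 3 s over 60 s. Velocity expressed as % activity relative to enzyme control without compound.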

[1] = for Calculated T-half (min), Average / Calculated T-half (min), n=1 / Calculated T-half (min), n=2: mouse liver microsomes (CD1 male), test conc 1 µM; for Calculated T-half (min), Average: average of n=1 and n=2; for Modified T-half (min), Average: limited to T Half range 3.00 - […]; for mouse liver microsomes T-half: NADPH, 1 μM; for Raw data: analyte peak area, T=0: 0 min; for Raw data: analyte peak area, T=0 / Raw data: analyte peak area, T=5 / Raw data: analyte peak area, T=10 / Raw data: analyte peak area, T=20: raw LC-MS area; for Raw data: analyte peak area, T=5: 5 min; for Raw data: analyte peak area, T=10: 10 min; for Raw data: analyte peak area, T=20: 20 min
[2] = system: Leishmania braziliensis promastigotes; test: Leishmanicidal activity, promastigote growth (SYBR Green, 72 h); assay type: cell-based, Leishmania (V.) braziliensis (MHOM/BR/1975/M2904); conditions: Leishmania braziliensis, L. braziliensis promastigotes, max 200 μM
Summary of the method: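 Promastigotes seeded at 4 × 10^6 parasites/mL with compounds in decreasing concentrations up to 200 μM, 0.5% DMSO final, 72 h.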

[3] = Cell viability / cytotoxicity assay (PrestoBlue, 72 h); assay type: cell-based; conditions: human; THP-1 cell line, 72 h, max 200 μM; read-out: CC50
Summary of the method: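 PMA-differentiated THP-1 cells (150 ng/mL PMA, 48 h; then 24 h in fresh medium) were exposed to compounds in serial dilution from 200 μM for 72 h at 37 °C, 5% CO2. Viability was read by PrestoBlue fluorescence (ex 560/em 590 nm) after 2 h.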

in vitro [4] = conditions: microsomes; for microsomal CLint at 1 μM / remaining at 5 min, 1 μM: male, CD1, mouse; for remaining at 5 min, 1 μM / remaining at 10 min, 1 µM / remaining at 20 min, 1 µM / remaining at 0.5 h, 1 µM / remaining at 1 h, 1 µM: pH 7.4, % Remaining; for remaining at 5 min, 1 μM: T=5 min; for remaining at 10 min, 1 µM / remaining at 20 min, 1 µM / remaining at 0.5 h, 1 µM / remaining at 1 h, 1 µM: mouse; for remaining at 10 min, 1 µM: T=10 min; for remaining at 20 min, 1 µM: T=20 min; for remaining at 0.5 h, 1 µM: T=30 min, 30 min; for remaining at 1 h, 1 µM: T=60 min, 60 min
[5] = Mouse liver microsome stability in the absence of cofactors (NCF); conditions: 60 min, no cofactor (NCF); for remaining at 1 h, 1 µM: mouse, microsomes, pH 7.4, % Remaining, T=60 NCF; for Raw data: analyte peak area, T=60 NCF: mouse liver microsomes, raw LC-MS area
in vitro [6] = conditions: for LogPe (cm/sec) n1: replicate n1, calculation section; for LogPe (cm/sec) n1 / LogPe (cm/sec) n2: PBS pH 7.4/7.4, 6h; for LogPe (cm/sec) n2: replicate n2, calculation section; for Pe (nm/sec) n=1 / % Recovery n=1: replicate n=1; for Pe (nm/sec) n=1 / Pe (nm/sec) n=2: 10µM (5% DMSO)
Procedure: Solutions of the compounds were prepared in duplicate by diluting the stock solutions (10 mM) in phosphate buffered saline (PBS) pH 7.4 at a final concentration of 10 μM (5% DMSO). The solutions diluted in PBS pH 7.4 were then added to the donor portion of the plate (300 μL/well), while in the acceptor portion PBS pH 7.4 (200 μL/well) was added. The two portions of the plate were then coupled, and the system was incubated for 6 h at room temperature. Samples of the initial donor solution (T0) were collected at the beginning (T0) and stored at 5 °C. The final concentrations of compounds in the donor, acceptor and T0 wells were quantified by LC-MS/MS.

[7] = read-out: Single dose (0h) % activity
[8] = read-out: Single dose (4h) % activity
[9] = 0.4 mg/ml protein, replicate n=1
[10] = 0.4 mg/ml protein, replicate n=2
[11] = mouse liver microsomes, 0.4 mg/ml, 1 µM
[12] = n=1, mouse liver microsomes, 1 µM, n=1
[13] = n=2, mouse liver microsomes, 1 µM, n=2
[14] = pH 7.4, mouse liver microsomes CLint, app, mouse liver microsomes, NADPH, 1 μM
[15] = n=1, mouse liver microsomes, n=1
[16] = n=2, mouse liver microsomes, n=2
[17] = PAMPA, pH 7.4, % Recovery n=1, replicate n=1, 10µM, PBS pH 7.4/7.4, 6h at room temperature
[18] = PAMPA, pH 7.4, % Recovery n=2, replicate n=2, 10µM, PBS pH 7.4/7.4, 6h at room temperature
[19] = PAMPA, pH 7.4, Avg % Recovery, average of n=2, 10µM, PBS pH 7.4/7.4, 6h at room temperature
[20] = average of n=2, 10µM, PBS pH 7.4/7.4, 6h at room temperature
[21] = PBS pH 7.4/7.4, 6h at room temperature, LC-MS/MS
[22] = 10µM, PBS pH 7.4/7.4, 6h at room temperature
[23] = replicate n=2, PBS pH 7.4/7.4, 6h at room temperature, LC-MS/MS
[24] = mouse liver microsomes, replicate 1 (left block)
[25] = mouse liver microsomes, replicate 2 (right block)

T1 sequence (Q02127 whole entry): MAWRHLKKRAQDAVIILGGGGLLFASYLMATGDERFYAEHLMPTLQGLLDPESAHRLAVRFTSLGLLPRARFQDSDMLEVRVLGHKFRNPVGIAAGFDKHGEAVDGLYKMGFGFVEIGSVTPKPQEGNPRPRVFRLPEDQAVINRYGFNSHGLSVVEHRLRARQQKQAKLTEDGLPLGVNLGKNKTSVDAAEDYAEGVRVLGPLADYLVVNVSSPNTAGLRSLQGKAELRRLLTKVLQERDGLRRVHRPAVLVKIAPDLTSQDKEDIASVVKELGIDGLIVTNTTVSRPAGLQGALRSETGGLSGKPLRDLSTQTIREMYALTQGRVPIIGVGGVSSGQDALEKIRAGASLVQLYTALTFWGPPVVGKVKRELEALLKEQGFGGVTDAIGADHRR

COc1cc(C=C2C(=O)NC(=O)NC2=O)ccc1O [2c, 5-(4-Hydroxy-3-methoxybenzylidene)pyrimidine-2,4,6(1H,3H,5H)-trione]
activity at 100 µM (HsDHODH; [7]): 80 ± 9% | activity at 100 µM (HsDHODH; [8]): 83 ± 8% | Calculated T-half (min), Average ([1]; 0.4 mg/ml protein): 6.0 min | Calculated T-half (min), n=1 [1, 9]: 6.12 min and 6.1 min | Calculated T-half (min), n=2 [1, 10]: 5.82 min and 5.8 min | Calculated CLint, app (µl/min/mg), n=1 ([1]; mouse liver microsomes, 0.4 mg/ml protein, 1 µM, replicate n=1): 283.1 µL/min/mg | Calculated CLint, app (µl/min/mg), n=2 ([1]; mouse liver microsomes, 0.4 mg/ml protein, 1 µM, replicate n=2): 297.8 µL/min/mg | Modified T-half (min), Average [1, 11]: 6.0 min | Remarks (mouse microsomal stability study) ([1]; mouse liver microsomes, 0.4 mg/ml, 1 µM, NCF = no cofactor control): Low NCF | mouse liver microsomes T-half ([1]; mouse liver microsomes): 6.0 min and 6 min | EC50 [2]: > 200 µM | CC50 at 72 h [3]: > 200 µM | microsomal CLint at 1 μM (in vitro [4]; pH 7.4): 283 µL/min/mg | remaining at 5 min, 1 μM (in vitro [4]; [12]): 38.7% | remaining at 5 min, 1 μM (in vitro [4]; [13]): 50.5% | microsomal CLint at 1 μM (in vitro [4]; pH 7.4, Calculated CLint, app (µl/min/mg), Average, mouse liver microsomes, 0.4 mg/ml protein, 1 µM): 290 µL/min/mg | microsomal CLint at 1 μM (in vitro [4]; pH 7.4, Calculated CLint, app (µl/min/mg), n=1, mouse liver microsomes, 0.4 mg/ml protein, 1 µM, replicate n=1): 283 µL/min/mg | microsomal CLint at 1 μM (in vitro [4]; pH 7.4, Calculated CLint, app (µl/min/mg), n=2, mouse liver microsomes, 0.4 mg/ml protein, 1 µM, replicate n=2): 298 µL/min/mg | microsomal CLint at 1 μM (in vitro [4]; [14]): 290 µL/min/mg | remaining at 10 min, 1 µM (in vitro [4]; [12]): 17.1% | remaining at 10 min, 1 µM (in vitro [4]; [13]): 17.8% | remaining at 20 min, 1 µM (in vitro [4]; [12]): 9.8% | remaining at 20 min, 1 µM (in vitro [4]; [13]): 9.5% | remaining at 0.5 h, 1 µM (in vitro [4]; [12]): 6.6% | remaining at 0.5 h, 1 µM (in vitro [4]; [13]): 9.5% | remaining at 1 h, 1 µM (in vitro [4]; [12]): 12.9% | remaining at 1 h, 1 µM (in vitro [4]; [13]): 13.3% | remaining at 1 h, 1 µM [5, 15]: 52.4% | remaining at 1 h, 1 µM [5, 16]: 51.5% | recovery at 6 h, 10 µM (in vitro [6]; [17]): 86.6% | recovery at 6 h, 10 µM (in vitro [6]; [18]): 96% | recovery at 6 h, 10 µM (in vitro [6]; [19]): 91.3% | Papp (in vitro [6]; PAMPA, pH 7.4, permeability, PBS pH 7.4, 10 μM, 6 h): 0.84 ×10⁻⁶ cm/s | Avg Log Pe (cm/sec) (in vitro [6]; [20]): -6.08 cm/sec and -6.1 cm/sec | Avg Pe (in vitro [6]; [20]): 0.843 ×10⁻⁶ cm/s and 0.84 ×10⁻⁶ cm/s | LogPe (cm/sec) n1 (in vitro [6]; 10µM): -6.16 cm/sec | LogPe (cm/sec) n2 (in vitro [6]; 10µM): -6.00 cm/sec | Pe (nm/sec) n=1 (in vitro [6]; [21]): 6.94 nm/s and 6.9 nm/s | % Recovery n=1 (in vitro [6]; [22]): 86.6% | Pe (nm/sec) n=2 (in vitro [6]; [23]): 9.91 nm/s and 9.9 nm/s | % Recovery n=2 (in vitro [6]; replicate n=2, 10µM, PBS pH 7.4/7.4, 6h at room temperature): 96.0%

O=C1NC(=O)C(=Cc2ccc(N3CCOCC3)cc2[N+](=O)[O-])C(=O)N1 [2e, 5-(4-Morpholino-2-nitrobenzylidene)pyrimidine-2,4,6(1H,3H,5H)-trione]
activity at 100 µM (HsDHODH; [7]): 80 ± 9% | activity at 100 µM (HsDHODH; [8]): 86 ± 8% | Calculated T-half (min), Average ([1]; 0.4 mg/ml protein): 298.4 min | Calculated T-half (min), n=1 [1, 9]: 354.59 min and 354.6 min | Calculated T-half (min), n=2 [1, 10]: 242.28 min and 242.3 min | Raw data: analyte peak area, T=0 [1, 24]: 18699 | Raw data: analyte peak area, T=0 [1, 25]: 19500 | Modified T-half (min), Average [1, 11]: >120.0 min | Raw data: analyte peak area, T=5 [1, 24]: 18869 | Raw data: analyte peak area, T=5 [1, 25]: 20171 | Raw data: analyte peak area, T=10 [1, 24]: 18566 | Raw data: analyte peak area, T=10 [1, 25]: 21617 | Raw data: analyte peak area, T=20 [1, 24]: 17411 | Raw data: analyte peak area, T=20 [1, 25]: 21071 | mouse liver microsomes T-half ([1]; mouse liver microsomes): >120.0 min | EC50 [2]: 17 ± 11 µM | CC50 at 72 h [3]: > 200 µM | microsomal CLint at 1 μM (in vitro [4]; pH 7.4): < 14.4 µL/min/mg | remaining at 5 min, 1 μM (in vitro [4]; [12]): 91.8% | remaining at 5 min, 1 μM (in vitro [4]; [13]): 103% | microsomal CLint at 1 μM (in vitro [4]; [14]): < 14.4 µL/min/mg | remaining at 10 min, 1 µM (in vitro [4]; [12]): 96% | remaining at 10 min, 1 µM (in vitro [4]; [13]): 109% | remaining at 20 min, 1 µM (in vitro [4]; [12]): 83.8% | remaining at 20 min, 1 µM (in vitro [4]; [13]): 99.7% | remaining at 0.5 h, 1 µM (in vitro [4]; [12]): 85% | remaining at 0.5 h, 1 µM (in vitro [4]; [13]): 91.7% | remaining at 1 h, 1 µM (in vitro [4]; [12]): 87.6% | remaining at 1 h, 1 µM (in vitro [4]; [13]): 88.8% | Raw data: analyte peak area, T=60 NCF ([5]; replicate 1 (left block)): 19133 | Raw data: analyte peak area, T=60 NCF ([5]; replicate 2 (right block)): 18454 | remaining at 1 h, 1 µM [5, 15]: 100% | remaining at 1 h, 1 µM [5, 16]: 93.1% | Remarks (PAMPA) (in vitro [6]; 10µM, PBS pH 7.4/7.4, 6h at room temperature, LC-MS/MS): No peak detected in acceptor samples | recovery at 6 h, 10 µM (in vitro [6]; [17]): 95.1% | recovery at 6 h, 10 µM (in vitro [6]; [18]): 101% | recovery at 6 h, 10 µM (in vitro [6]; [19]): 98.2% | Avg Log Pe (cm/sec) (in vitro [6]; [20]): -9.4 cm/sec and -9.35 cm/sec | Avg Pe (in vitro [6]; [20]): 0.000444 ×10⁻⁶ cm/s | LogPe (cm/sec) n1 (in vitro [6]; 10µM): -9.34 cm/sec | LogPe (cm/sec) n2 (in vitro [6]; 10µM): -9.37 cm/sec | Pe (nm/sec) n=1 (in vitro [6]; [21]): 0.00461 nm/s | % Recovery n=1 (in vitro [6]; [22]): 95.05% | Pe (nm/sec) n=2 (in vitro [6]; [23]): 0.00426 nm/s
